The text below walks through data of patent US12324802B2, “Modulators of cystic fibrosis transmembrane conductance regulator” (Vertex Pharmaceuticals Incorporated, priority 2020, dated 2025).

The target in this test is T1, CFTR (F508del/MF-HBE cells) (Homo sapiens, UniProt P13569, DEL508-508).
T1 construct: human bronchial epithelial (HBE) cells derived from CF subjects heterozygous for F508del and a minimal function CFTR mutation; endogenous in cells; host or cells: primary human bronchial epithelial cells from CF subjects (F508del/MF genotype)
T1 sequence (P13569 with tags, fused parts or gaps DEL508-508): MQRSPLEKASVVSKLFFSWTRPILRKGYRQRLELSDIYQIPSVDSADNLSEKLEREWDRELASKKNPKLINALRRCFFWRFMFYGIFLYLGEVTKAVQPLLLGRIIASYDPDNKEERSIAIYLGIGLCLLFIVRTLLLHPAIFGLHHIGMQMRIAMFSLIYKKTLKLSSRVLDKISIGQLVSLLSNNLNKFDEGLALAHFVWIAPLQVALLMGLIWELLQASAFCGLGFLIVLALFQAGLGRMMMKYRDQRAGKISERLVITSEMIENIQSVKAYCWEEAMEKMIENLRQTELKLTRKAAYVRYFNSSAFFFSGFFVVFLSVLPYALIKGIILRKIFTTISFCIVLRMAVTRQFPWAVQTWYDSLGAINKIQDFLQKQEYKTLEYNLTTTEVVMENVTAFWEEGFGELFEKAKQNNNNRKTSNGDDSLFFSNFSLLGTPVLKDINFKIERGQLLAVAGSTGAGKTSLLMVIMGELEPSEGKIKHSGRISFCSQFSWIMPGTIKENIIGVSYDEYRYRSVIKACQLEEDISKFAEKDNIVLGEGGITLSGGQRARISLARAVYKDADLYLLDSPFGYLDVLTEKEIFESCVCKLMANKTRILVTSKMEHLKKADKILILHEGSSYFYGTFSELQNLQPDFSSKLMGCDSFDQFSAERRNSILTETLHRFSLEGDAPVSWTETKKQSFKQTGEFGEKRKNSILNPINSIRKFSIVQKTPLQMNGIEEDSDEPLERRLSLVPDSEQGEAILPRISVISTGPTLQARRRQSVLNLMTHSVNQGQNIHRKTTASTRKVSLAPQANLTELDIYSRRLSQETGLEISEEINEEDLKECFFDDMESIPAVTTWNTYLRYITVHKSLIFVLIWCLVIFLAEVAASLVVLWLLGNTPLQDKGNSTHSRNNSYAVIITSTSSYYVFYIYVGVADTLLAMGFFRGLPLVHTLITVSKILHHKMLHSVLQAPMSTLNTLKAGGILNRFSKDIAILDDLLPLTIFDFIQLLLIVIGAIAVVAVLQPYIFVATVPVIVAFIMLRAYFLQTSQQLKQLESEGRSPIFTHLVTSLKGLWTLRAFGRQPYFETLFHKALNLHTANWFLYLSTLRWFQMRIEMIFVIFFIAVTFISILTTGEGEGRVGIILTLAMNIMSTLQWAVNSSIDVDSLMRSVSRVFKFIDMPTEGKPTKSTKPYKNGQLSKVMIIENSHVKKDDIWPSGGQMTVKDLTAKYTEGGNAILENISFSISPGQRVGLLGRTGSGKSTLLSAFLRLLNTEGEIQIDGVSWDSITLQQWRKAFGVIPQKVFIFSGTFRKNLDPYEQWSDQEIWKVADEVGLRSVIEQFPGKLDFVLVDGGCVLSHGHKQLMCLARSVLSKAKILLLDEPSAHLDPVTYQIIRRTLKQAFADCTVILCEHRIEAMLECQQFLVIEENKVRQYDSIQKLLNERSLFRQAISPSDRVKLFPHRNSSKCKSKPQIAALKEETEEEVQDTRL
Briefly: Ussing chamber assay of CFTR-mediated short-circuit currents (identification of potentiator compounds). Conditions: CFTR-mediated ISC in F508del/MF-HBE cells; incubated 18-24 hours at 37° C. with 10 μM (14S)-8-[3-(2-{dispiro[2.0.2.1]heptan-7-yl}ethoxy)-1H-pyrazol-1-yl]-...-2,2,4-trione, 20% human serum. It counts as cell-based. The essentials:
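Short-circuit current was voltage-clamped at 0 mV and 37 °C in pH 7.4 HEPES buffers, with amiloride (30 μM) on the apical side. The CFTR component was defined as forskolin (20 μM) peak minus residual current after BPO/GlyH-101/CFTRinh-172 at 20 μM each. Cells had been pretreated 18–24 h with potentiator concentrations and 10 μM corrector in 20% human serum, kept throughout the measurement.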
Turning to `Nc1cc(C(F)(F)F)c2nc1-c1nnc(o1)C(O)(C(F)(F)F)CCCC[C@@H]1CCCN21` (single isomer, unassigned) [Compound 33], the EC50 is above 1000 nM. To `Nc1cc(-c2ccncc2)c2nc1-c1nnc(o1)C(O)(C(F)(F)F)CCCCC[C@@H]1CCCN21` (mixture of isomers) [Compound 125, (12R)-20-amino-18-(pyridin-4-yl)-6-(trifluoromethyl)-22-oxa-3,4,16,21-tetraazatetracyclo[15.3.1.12,5.012,16]docosa-1(21),2,4,17,19-pentaen-6-ol] belongs above 1000 nM.

For `CP(C)(=O)c1cc(N)c2nc1N1CCC[C@H]1CCCCCC(O)(C(F)(F)F)C1=NN=C2O1` (single isomer, unassigned) [Compound 99], the concentration giving a half-maximal response (EC50) was above 1000 nM. To `CC1(C)Nc2nc(c(N)cc2C(F)(F)F)C2=NN=C(O2)[C@@](O)(C(F)(F)F)CCCCC1O` (single isomer, unassigned) [Compound 203] belongs below 500 nM; to `Nc1cc(C(F)(F)F)c2nc1-c1nnc(o1)C(O)(C(F)(F)F)CCCCCC(CO)N2` (single isomer, unassigned) [Compound 103, 17-amino-12-(hydroxymethyl)-6,15-bis(trifluoromethyl)-19-oxa-3,4,13,18-tetrazatricyclo[12.3.1.12,5]nonadeca-1(18),2,4,14,16-pentaen-6-ol], below 500 nM. In the case of `Nc1cc(C2CC2)c2nc1-c1nnc(o1)C(O)(C(F)(F)F)CCCCC[C@@H]1CCCN21` (single isomer, unassigned) [Compound 91] it was above 1000 nM.

On to `Nc1cc(C(F)(F)F)c2nc1-c1nnc(o1)C(=O)CCCCC[C@@H]1CCCN21` [Compound 36, (12R)-20-amino-18-(trifluoromethyl)-22-oxa-3,4,16,21-tetraazatetracyclo[15.3.1.12,5.012,16]docosa-1(21),2,4,17,19-pentaen-6-one], for which the half-maximal effective concentration (EC50) is below 500 nM. To `CC1(C)CCCCC(O)C(O)(C(F)(F)F)C2=NN=C(O2)c2nc(c(C(F)(F)F)cc2N)N1` (single isomer, unassigned) [Compound 194, 17-amino-12,12-dimethyl-6,15-bis(trifluoromethyl)-19-oxa-3,4,13,18-tetrazatricyclo[12.3.1.12,5]nonadeca-1(18),2,4,14,16-pentaene-6,7-diol] belongs below 500 nM; to `Nc1cc([S+]([O-])c2ccc(OC(F)(F)F)cc2)c2nc1-c1nnc(o1)C(O)(C(F)(F)F)CCCCC[C@@H]1CCCN21` (mixture of isomers) [Compound 145, (12R)-20-amino-18-[4-(trifluoromethoxy)benzenesulfinyl]-6-(trifluoromethyl)-22-oxa-3,4,16,21-tetraazatetracyclo[15.3.1.12,5.012,16]docosa-1(21),2,4,17,19-pentaen-6-ol], below 500 nM. To `CC1(C)CCCOCC(O)(C(F)(F)F)C2=NN=C(O2)c2nc(c(C(F)(F)F)cc2N)N1` (single isomer, unassigned) [Compound 197, 17-amino-12,12-dimethyl-6,15-bis(trifluoromethyl)-8,19-dioxa-3,4,13,18-tetrazatricyclo[12.3.1.12,5]nonadeca-1(18),2,4,14,16-pentaen-6-ol] belongs below 500 nM; to `CN(C)C(=O)C1CCCCCC(O)(C(F)(F)F)C2=NN=C(O2)c2nc(c(C(F)(F)F)cc2N)N1` (single isomer, unassigned) [Compound 150, 17-amino-6-hydroxy-N,N-dimethyl-6,15-bis(trifluoromethyl)-19-oxa-3,4,13,18-tetrazatricyclo[12.3.1.12,5]nonadeca-1(18),2,4,14,16-pentaene-12-carboxamide], above 1000 nM.

For `[2H]C([2H])([2H])C1(C([2H])([2H])[2H])CCCCC[C@](O)(C(F)(F)F)C2=NN=C(O2)c2nc(c(C(F)(F)F)cc2N)N1` [Compound 176, (6R)-17-amino-12,12-bis(trideuteriomethyl)-6,15-bis(trifluoromethyl)-19-oxa-3,4,13,18-tetrazatricyclo[12.3.1.12,5]nonadeca-1(18),2,4,14,16-pentaen-6-ol], the EC50 was below 500 nM.

Regarding `CC1(C)CC2CCCCCC(O)(C(F)(F)F)C3=NN=C(O3)c3nc(c(C(F)(F)F)cc3N)N2C1` (single isomer, unassigned) [Compound 29, 20-amino-14,14-dimethyl-6,18-bis(trifluoromethyl)-22-oxa-3,4,16,21-tetraazatetracyclo[15.3.1.12,5.012,16]docosa-1(21),2,4,17,19-pentaen-6-ol], the half-maximal effective concentration (EC50) is below 500 nM. In the case of `Nc1cc(C(F)(F)F)c2nc1-c1nnc(o1)C(=NO)CCCCC[C@@H]1CCCN21` [Compound 31, (12R)-6-(hydroxyimino)-18-(trifluoromethyl)-22-oxa-3,4,16,21-tetraazatetracyclo[15.3.1.12,5.012,16]docosa-1(21),2,4,17,19-pentaen-20-amine] it was below 500 nM; in that of `Nc1cc(C(F)(F)F)c2nc1-c1nnc(o1)[C@](O)(C(F)(F)F)c1cc(ccc1F)C=CC[C@@H]1CCCN21` (mixture of isomers) [Compound 139, (6S,15S)-23-amino-8-fluoro-6,21-bis(trifluoromethyl)-26-oxa-3,4,19,24-tetraazapentacyclo[18.3.1.12,5.17,11.015,19]hexacosa-1(24),2,4,7(25),8,10,12,20,22-nonaen-6-ol], above 1000 nM. To `Nc1cc(C(F)(F)F)c2nc1-c1nnc(o1)C(O)(C(F)(F)F)CCCCCC(c1ccccc1)N2` (single isomer, unassigned) [Compound 122, 17-amino-12-phenyl-6,15-bis(trifluoromethyl)-19-oxa-3,4,13,18-tetrazatricyclo[12.3.1.12,5]nonadeca-1(18),2,4,14,16-pentaen-6-ol] belongs above 1000 nM.

For `CC1(C)CC2CCCc3ccc(F)c(c3)C(O)(C(F)(F)F)C3=NN=C(O3)c3nc(c(C(F)(F)F)cc3N)N2C1` (centres unmarked) [Compound 136, 23-amino-8-fluoro-17,17-dimethyl-6,21-bis(trifluoromethyl)-26-oxa-3,4,19,24-tetraazapentacyclo[18.3.1.12,5.17,11.015,19]hexacosa-1(24),2,4,7(25),8,10,20,22-octaen-6-ol], the half-maximal effective concentration (EC50) is below 500 nM. In the case of `CN1CCCCCCC(O)(C(F)(F)F)C2=NN=C(O2)c2nc1c(S(C)(=O)=O)cc2N` (single isomer, unassigned) [Compound 39, 17-amino-13-methyl-15-methylsulfonyl-6-(trifluoromethyl)-19-oxa-3,4,13,18-tetrazatricyclo[12.3.1.12,5]nonadeca-1(18),2,4,14,16-pentaen-6-ol] it was below 500 nM; in that of `Nc1cc(S(=O)(=O)c2ccccc2)c2nc1-c1nnc(o1)C(O)(C(F)(F)F)CCCCC[C@@H]1CCCN21` (mixture of isomers) [Compound 133, (12R)-20-amino-18-(benzenesulfonyl)-6-(trifluoromethyl)-22-oxa-3,4,16,21-tetraazatetracyclo[15.3.1.12,5.012,16]docosa-1(20),2,4,17(21),18-pentaen-6-ol], below 500 nM; in that of `Nc1cc(C(F)(F)F)c2nc1-c1nnc(o1)[C@@](O)(C(F)(F)F)CCCCCC1(CCC1)N2` [Compound 173, (6R)-17-amino-6,15-bis(trifluoromethyl)spiro[19-oxa-3,4,13,18-tetrazatricyclo[12.3.1.12,5]nonadeca-1(18),2,4,14,16-pentaene-12,1′-cyclobutane]-6-ol], below 500 nM.

A word on the EC50: it is the concentration giving half of the maximal effect.
